Assay results from patent US8604029B2, “2-[(2-substituted)-indolizin-3-yl]-2-oxo-acetamide derivatives as antifungal agents” (F2G Ltd British Body Corporate, priority 2006, dated 2013).

System: Aspergillus fumigatus
Experiment: MIC measurement, YAG medium
Format: cell-based
Conditions: Aspergillus fumigatus; YAG medium; MIC banded into grades; strain AF293; read-out: MIC A. fumigatus
Description: Between 1 and 5 mgs of compound were accurately weighed out into a sterile Eppendorf tube. The compound was dissolved in DMSO to give a solution containing […]. Tubes were stored at −20° C. until required.
On the day of testing thawed solutions were vortex mixed to ensure homogeneity. 30 μL of solution was removed and added to 570 μL of sterile water in a separate sterile Eppendorf. The thoroughly mixed solution was used to prepare a series of doubling dilutions in water, in a deep well plate. Thirteen replicate plates were prepared using a Minitrak by aspirating 20 μL from each well into eleven clear polystyrene 96 well plates.
Spores of Aspergillus spp. (Aspergillus fumigatus [two strains], Aspergillus terreus [two strains], Aspergillus niger and Aspergillus flavus) were harvested from cultures grown on Sabarauds agar for 5 days, and resuspended in PBS/Tween 80 to approx 1×10^7 cfu/mL. Other filamentous fungi (Absidia corymbifera, Fusarium solani, Rhizomucor, Scedosporium spp., Trichophyton spp.), were grown on Sabarauds agar for 2-10 days and spores/hyphae resuspended in PBS/Tween to give approx 1×10^7 cfu/mL. Candida species (Candida albicans, Candida glabrata, Candida krusei, Candida parapsilosis and Candida tropicalis) were grown on Sabarauds agar, cells were harvested from the agar using a sterile loop and resuspended in PBS/Tween 80 to approx 1×10^6 cfu/mL. Each organism suspension was diluted in RPMI medium, containing 2% glucose and 0.135 M MOPS buffer (pH 7.0) to 0.5-2×10^4 cfu/mL for Aspergillus spp. and other filamentous fungi and 0.5-2×10^3 cfu/mL for yeast. 80 μL of an organism suspension was added to each well of the plate containing drug dilutions.
This produced MIC plates with a drug range 50-0.05 mg/L and organism inocula of 1-2×10^4 cfu/mL for Aspergillus spp. and other filamentous fungi and 1-2×10^3 cfu/mL for yeasts. All plates were incubated for 24-48 hrs at 35° C. Growth was assessed by monitoring the optical density at 485 nm for each well. The MIC of a compound is the lowest drug concentration that inhibits growth of an organism by >80% compared with a drug free control. MICs are recorded as mg/L. Other growth media can be used for susceptibility testing, and the activity of the described compounds can also be assessed in a medium comprising 1% glucose, 1% ammonium chloride and 0.5% yeast extract (YAG medium). To perform MIC tests in this medium, dilutions of compounds are prepared in microtitre plates as described above. Fungal strains to be tested are grown and harvested in an identical manner to that described above, each organism suspension is then diluted in YAG medium to 0.5-2×10^4 cfu/mL for Aspergillus spp. and other filamentous fungi and 0.5-2×10^3 cfu/mL for yeast. 80 μL of an organism suspension was added to each well of the plate containing drug dilutions. This produced MIC plates with a drug range 50-0.05 mg/L and organism inocula of 1-2×10^4 cfu/mL for Aspergillus spp. and other filamentous fungi and 1-2×10^3 cfu/mL for yeasts. All plates were incubated for 24 hrs at 35° C. Growth was assessed by monitoring the optical density at 485 nm for each well. The MIC of a compound is the lowest drug concentration that inhibits growth of an organism by >70% compared with a drug free control. MICs are recorded as mg/L. In cases where the MIC of an organism is […] mg/L the MIC is repeated using a concentration range of 0.5-0.0005 mg/L. MIC tests in YAG medium have more clear-cut endpoints and have slightly lower MICs than those performed in RPMI medium.
The following organisms were tested: Absidia corymbifera, Aspergillus flavus, Aspergillus fumigatus AF293 and AF210, Aspergillus niger, Aspergillus terreus AT4 and AT49, Candida albicans, Candida glabrata, Candida krusei, Candida parapsilosis, Candida tropicalis, Fusarium solani, Rhizomucor sp., Scedosporium apiospermum, Scedosporium prolificans, Trichophyton mentagrophytes, and Trichophyton rubrum.

Going from Cc1cc(C)nc(N2CCN(c3ccc(NC(=O)C(=O)c4c(-c5ccccc5)cc5ccccn45)cc3)CC2)n1 [Example 44, N-{4-[4-(4,6-Dimethyl-pyrimidin-2-yl)-piperazin-1-yl]-phenyl}-2-oxo-2-(2-phenyl-indolizin-3-yl)-acetamide] to Cc1cc(N2CCN(c3ccc(NC(=O)C(=O)c4c(-c5ccccc5)cc5ccccn45)cc3)CC2)cc(C)n1 [Example 52, N-{4-[4-(2,6-Dimethyl-pyridin-4-yl)-piperazin-1-yl]-phenyl}-2-oxo-2-(2-phenyl-indolizin-3-yl)-acetamide], the MIC rises from < 1 µg/mL to > 10 µg/mL.

C=C1CCN(c2ccc(NC(=O)C(=O)c3c(-c4cccnc4C)cc4ccccn34)cc2)CC1 [Example 46, N-[4-(4-Methylene-piperidin-1-yl)-phenyl]-2-[2-(2-methyl-pyridin-3-yl)-indolizin-3-yl]-2-oxo-acetamide] and Cc1ccnc(N2CCN(c3ccc(NC(=O)C(=O)c4c(-c5ccccc5)cc5ccccn45)cc3)CC2)c1 [Example 49, N-{4-[4-(4-Methyl-pyridin-2-yl)-piperazin-1-yl]-phenyl}-2-oxo-2-(2-phenyl-indolizin-3-yl)-acetamide] cannot be ordered by MIC: < 1 µg/mL for the first, < 1 µg/mL for the second.

Cc1cc(C)nc(N2CCN(c3ccc(NC(=O)C(=O)c4c(C5CCCC5)cc5ccccn45)cc3)CC2)c1 [Example 47, 2-(2-Cyclopentyl-indolizin-3-yl)-N-{4-[4-(4,6-dimethyl-pyridin-2-yl)-piperazin-1-yl]-phenyl}-2-oxo-acetamide] and Cc1cc(C)nc(N2CCN(c3ccc(NC(=O)C(=O)c4c(C5CCCCC5)cc5ccccn45)cc3)CC2)c1 [Example 60, 2-(2-Cyclohexyl-indolizin-3-yl)-N-{4-[4-(4,6-dimethyl-pyridin-2-yl)-piperazin-1-yl]-phenyl}-2-oxo-acetamide] cannot be ordered by MIC: < 1 µg/mL for the first, < 1 µg/mL for the second.

Cc1cc(C)nc(N2CCN(c3cccc(NC(=O)C(=O)c4c(-c5ccccc5)cc5ccccn45)c3)CC2)c1 [Example 48, N-{3-[4-(4,6-Dimethyl-pyridin-2-yl)-piperazin-1-yl]-phenyl}-2-oxo-2-(2-phenyl-indolizin-3-yl)-acetamide] and Cc1cc(C)nc(N2CCCN(c3ccc(NC(=O)C(=O)c4c(-c5ccccc5)cc5ccccn45)cc3)CC2)c1 [Example 54, N-{4-[4-(4,6-Dimethyl-pyridin-2-yl)-[1,4]diazepan-1-yl]-phenyl}-2-oxo-2-(2-phenyl-indolizin-3-yl)-acetamide] cannot be ordered by MIC: < 1 µg/mL for the first, < 1 µg/mL for the second.

CC(C)(C)CN1CCN(c2ccc(NC(=O)C(=O)c3c(-c4ccccc4)cc4ccccn34)nc2)CC1 [Example 50, N-{5-[4-(2,2-Dimethyl-propyl)-piperazin-1-yl]-pyridin-2-yl}-2-oxo-2-(2-phenyl-indolizin-3-yl)-acetamide] and O=C(Nc1ccc(N2CCN(c3cccnc3)CC2)cc1)C(=O)c1c(-c2ccccc2)cc2ccccn12 [Example 59, 2-Oxo-2-(2-phenyl-indolizin-3-yl)-N-[4-(4-pyridin-3-yl-piperazin-1-yl)-phenyl]-acetamide] cannot be ordered by MIC: < 1 µg/mL for the first, < 1 µg/mL for the second.

O=C(Nc1ccc(N2CCN(S(=O)(=O)c3cccnc3)CC2)cc1)C(=O)c1c(-c2ccccc2)cc2ccccn12 [Example 51, 2-Oxo-2-(2-phenyl-indolizin-3-yl)-N-{4-[4-(pyridine-3-sulfonyl)-piperazin-1-yl]-phenyl}-acetamide] and COCCN(C)c1ccc(N2CCN(c3ccc(NC(=O)C(=O)c4c(-c5ccccc5)cc5ccccn45)cc3)CC2)cn1 [Example 68, N-[4-(4-{6-[(2-Methoxy-ethyl)-methyl-amino]-pyridin-3-yl}-piperazin-1-yl)-phenyl]-2-oxo-2-(2-phenyl-indolizin-3-yl)-acetamide] cannot be ordered by MIC: < 1 µg/mL for the first, < 1 µg/mL for the second.

Cc1cc(C)nc(N(C)CCN(C)c2ccc(NC(=O)C(=O)c3c(-c4ccccc4)cc4ccccn34)cc2)c1 [Example 55, N-[4-({2-[(4,6-Dimethyl-pyridin-2-yl)-methyl-amino]-ethyl}-methyl-amino)-phenyl]-2-oxo-2-(2-phenyl-indolizin-3-yl)-acetamide] and Cc1cc(C)nc(N(C)CCCN(C)c2ccc(NC(=O)C(=O)c3c(-c4ccccc4)cc4ccccn34)cc2)c1 [Example 67, N-[4-({3-[(4,6-dimethyl-pyridin-2-yl)-methyl-amino]-propyl}-methyl-amino)-phenyl]-2-oxo-2-(2-phenyl-indolizin-3-yl)-acetamide] cannot be ordered by MIC: < 1 µg/mL for the first, < 1 µg/mL for the second.

O=C(Nc1ccc(N2CCN(c3ccc(CN4CCOCC4)cc3)CC2)cc1)C(=O)c1c(-c2ccccc2)cc2ccccn12 [Example 56, N-{4-[4-(4-Morpholin-4-ylmethyl-phenyl)-piperazin-1-yl]-phenyl}-2-oxo-2-(2-phenyl-indolizin-3-yl)-acetamide] and COCCOc1cc(C)nc(N2CCN(c3ccc(NC(=O)C(=O)c4c(-c5ccccc5)cc5ccccn45)cc3)CC2)c1 [Example 57, N-(4-{4-[4-(2-Methoxy-ethoxy)-6-methyl-pyridin-2-yl]-piperazin-1-yl}-phenyl)-2-oxo-2-(2-phenyl-indolizin-3-yl)-acetamide] cannot be ordered by MIC: < 1 µg/mL for the first, < 1 µg/mL for the second.

Cc1cc(C)nc(N2CCN(c3ccc(NC(=O)C(=O)c4c(C5CC5)cc5ccccn45)cc3)CC2)c1 [Example 58, 2-(2-Cyclopropyl-indolizin-3-yl)-N-{4-[4-(4,6-dimethyl-pyridin-2-yl)-piperazin-1-yl]-phenyl}-2-oxo-acetamide] and Cc1cc(C)nc(N2CCN(c3ccc(NC(=O)C(=O)c4c(C5CCOCC5)cc5ccccn45)cc3)CC2)c1 [Example 66, N-{4-[4-(4,6-Dimethyl-pyridin-2-yl)-piperazin-1-yl]-phenyl}-2-oxo-2-[2-(tetrahydro-pyran-4-yl)-indolizin-3-yl]-acetamide] cannot be ordered by MIC: < 1 µg/mL for the first, < 1 µg/mL for the second.

Going from Cc1cc(C)nc(N2CCN(c3ccc(NC(=O)C(=O)c4c(C(C)C)cc5ccccn45)cc3)CC2)c1 [Example 61, N-{4-[4-(4,6-Dimethyl-pyridin-2-yl)-piperazin-1-yl]-phenyl}-2-(2-isopropyl-indolizin-3-yl)-2-oxo-acetamide] to Cc1cc(C)nc(N2CCN(c3ccc(NC(=O)C(=O)c4c(C(C)(C)C)cc5ccccn45)cc3)CC2)c1 [Example 62, 2-(2-tert-Butyl-indolizin-3-yl)-N-{4-[4-(4,6-dimethyl-pyridin-2-yl)-piperazin-1-yl]-phenyl}-2-oxo-acetamide], the MIC rises from < 1 µg/mL to > 10 µg/mL.

Going from Cc1cc(C)nc(N2CCN(c3ccc(NC(=O)C(=O)c4c(C5CCN(C)CC5)cc5ccccn45)cc3)CC2)c1 [Example 63, N-{4-[4-(4,6-Dimethyl-pyridin-2-yl)-piperazin-1-yl]-phenyl}-2-[2-(1-methyl-piperidin-4-yl)-indolizin-3-yl]-2-oxo-acetamide] to Cc1cc(C)nc(N(C)CCOc2ccc(NC(=O)C(=O)c3c(-c4ccccc4)cc4ccccn34)cc2)c1 [Example 64, N-(4-{2-[(4,6-Dimethyl-pyridin-2-yl)-methyl-amino]-ethoxy}-phenyl)-2-oxo-2-(2-phenyl-indolizin-3-yl)-acetamide], the MIC falls from > 10 µg/mL to < 1 µg/mL.

Cc1cc(C)nc(OCCOc2ccc(NC(=O)C(=O)c3c(-c4ccccc4)cc4ccccn34)cc2)c1 [Example 65, N-{4-[2-(4,6-Dimethyl-pyridin-2-yloxy)-ethoxy]-phenyl}-2-oxo-2-(2-phenyl-indolizin-3-yl)-acetamide] and Cc1cc(C)nc(NCCN(C)c2ccc(NC(=O)C(=O)c3c(-c4ccccc4)cc4ccccn34)cc2)c1 [Example 69, N-(4-{[2-(4,6-dimethyl-pyridin-2-ylamino)-ethyl]-methyl-amino}-phenyl)-2-oxo-2-(2-phenyl-indolizin-3-yl)-acetamide] cannot be ordered by MIC: < 1 µg/mL for the first, < 1 µg/mL for the second.
